Assay results taken from patent US20020147187A1, “1,2-diphenyl-1-naphthyl ethene derivatives, analogs and use thereof” (priority 2001, published 2002).

Legend:
MCF-7 cells = assay: MCF-7 cell proliferation assay (estradiol stimulated versus unstimulated, MTT); format: cell-based, human; settings: estradiol stimulated versus unstimulated MCF-7 cells, FIG. 1
Description: Those skilled in the art will appreciate that several acceptable estrogen receptor-binding assays are known and available for initial screening of the compounds of the present invention. The initial screen chosen for detecting anti-estrogenic/estrogenic activity was a human cell line assay, namely the MCF-7 cell proliferation assay. MCF-7 cells are estrogen-receptor positive (ER+) cancer cells that respond to estradiol stimulation. Anti-estrogenic activity is measured in terms of a test article's ability to inhibit estradiol stimulated proliferation, implying an antagonistic action on the estrogen receptor and estrogenic activity can be inferred from increased proliferation. The following testing procedure was used.
MCF-7 cells were maintained in a RPMI medium, free of phenol red, and supplemented with 5% charcoal-stripped foetal calf serum, hydrocortisone, bovine insulin, penicillin and streptomycin until they reached 70% confluence. […] Cell survival was evaluated after 3-6 days, by replacing the culture media with 150 μl of fresh medium containing 10 mM 4-(2-hydroxyethyl)-1-piperazineethamsulfonic acid buffer (pH 7.4) followed by the addition of 50 μl of 2.5 mg/ml of 3-(4,5-dimethylthiazo-2-yl)-2,5-diphenyltetrazolium bromide (MTT). […] Plates were shaken for 15 minutes and the absorbance was determined at 570 nm with a microplate reader (BIORAD, model 450). […]

[1] = biological target: human recombinant estrogen receptor beta (Homo sapiens, UniProt Q92731); assay: Estrogen receptor beta binding assay ([3H] Estradiol displacement); settings: displacement of 0.5 nM [3H] Estradiol, 7.5 ng receptor protein, 2 hours at 25° C.; read-out: IC50 Value, Estrogen Receptor Subtype Beta
[2] = biological target: T1, human recombinant estrogen receptor alpha (Homo sapiens, UniProt P03372); assay: Estrogen receptor alpha binding assay ([3H] Estradiol displacement); settings: IC50 Value, Estrogen Receptor Subtype Alpha, displacement of 0.5 nM [3H] Estradiol, 4.5 ng receptor protein, 2 hours at 25° C.
T1 sequence (P03372 1-595): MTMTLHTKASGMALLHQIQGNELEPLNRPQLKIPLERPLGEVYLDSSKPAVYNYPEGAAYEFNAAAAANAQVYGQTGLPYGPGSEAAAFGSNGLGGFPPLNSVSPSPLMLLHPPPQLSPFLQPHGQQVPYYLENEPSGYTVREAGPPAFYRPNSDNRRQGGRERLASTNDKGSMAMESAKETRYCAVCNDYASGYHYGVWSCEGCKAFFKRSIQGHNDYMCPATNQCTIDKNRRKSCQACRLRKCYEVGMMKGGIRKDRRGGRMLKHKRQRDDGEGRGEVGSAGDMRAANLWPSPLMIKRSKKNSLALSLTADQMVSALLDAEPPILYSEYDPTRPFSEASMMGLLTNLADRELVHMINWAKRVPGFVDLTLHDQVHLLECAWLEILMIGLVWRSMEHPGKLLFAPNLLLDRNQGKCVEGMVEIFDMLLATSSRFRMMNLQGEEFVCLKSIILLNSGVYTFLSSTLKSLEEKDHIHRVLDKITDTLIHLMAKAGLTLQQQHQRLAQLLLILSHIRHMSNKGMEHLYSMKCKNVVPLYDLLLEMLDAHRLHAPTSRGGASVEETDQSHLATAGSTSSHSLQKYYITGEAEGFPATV
Description: The stable expression of these individual receptor subtypes in cells provides a rapid and accurate means of quantifying the direct interaction of a test article with the estrogen binding sites. Briefly, this assay is conducted in 96 well plates where a series of concentrations of the test article are used to displace tritiated estradiol from either estrogen receptor alpha or estrogen receptor beta bearing cell membranes, under equilibrium conditions. […] This measurement is the primary test for mediation of the estrogen receptor and can also be used to measure the relative selectivity of the test article for either the alpha or beta subtype.
The alpha subtype assay measures the binding of [^3H] Estradiol to the human recombinant estrogen receptor. […] Membranes are filtered and washed 3 times, and the filters are counted to determine [^3H] Estradiol specifically bound. […] The measurement of the displaced tritiated estradiol allows the determination of an IC50 value, a direct measure of the test articles' interaction with the estrogen receptor alpha.

Sequence of human recombinant estrogen receptor beta (Q92731 whole entry): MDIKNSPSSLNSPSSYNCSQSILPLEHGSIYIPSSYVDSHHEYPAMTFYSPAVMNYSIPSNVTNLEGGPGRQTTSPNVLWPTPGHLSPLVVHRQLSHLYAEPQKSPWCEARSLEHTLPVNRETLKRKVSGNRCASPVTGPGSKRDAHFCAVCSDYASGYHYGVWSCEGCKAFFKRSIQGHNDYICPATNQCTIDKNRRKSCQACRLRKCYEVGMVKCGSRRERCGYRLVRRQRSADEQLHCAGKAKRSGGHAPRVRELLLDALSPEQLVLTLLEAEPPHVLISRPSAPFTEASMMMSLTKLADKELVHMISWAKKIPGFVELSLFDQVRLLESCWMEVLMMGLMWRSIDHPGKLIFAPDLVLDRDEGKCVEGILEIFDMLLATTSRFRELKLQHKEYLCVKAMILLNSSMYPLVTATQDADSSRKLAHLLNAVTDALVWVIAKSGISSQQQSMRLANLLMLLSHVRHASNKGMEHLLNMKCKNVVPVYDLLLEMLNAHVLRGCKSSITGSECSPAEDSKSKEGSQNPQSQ

Q: For `C/C(=C(/c1ccc(O)cc1)c1cccc2cc(O)ccc12)c1ccc(OCCN2CCCC2)cc1` [Formula II, (E)-5-[1-(4-hydroxyphenyl)-2-[4-(2-pyrrolidin-1-yl-ethoxy)-phenyl]-propenyl]-naphthalen-2-ol], which “effect on estradiol stimulated proliferation of MCF-7 cells (shift in dose-response curve)” value (MCF-7 cells) is on record?
A: The value was “antagonizing the effect of estradiol”.

Q: And the IC50 [1]?
A: Its IC50 is 75 nM.

Q: What about the IC50 [2] of the same compound?
A: Its IC50 is 5.54 nM.
